1 compound from US10081662B2, “Modified relaxin B chain peptides” (The Florey Institute of Neuroscience and Mental Health, priority 2014, dated 2018) can be followed below.

Peptide text beside a SMILES is read from it.

The target of data set [1] is T1, RXFP2 (Homo sapiens, UniProt Q8WXD0).
T1 construct: expressed in transfected cells; host or cells: HEK-293T
Briefly: cAMP reporter gene assay in HEK-293T cells transfected with RXFP2. It counts as cell-based. The following applies: RXFP1- vs RXFP2-expressing HEK-293T cells; FIG. 3. As for the experimental part:
The ability of the relaxin-2 B chain peptide derivatives generated in Example 1 to stimulate cAMP response was also evaluated, using a cAMP reporter gene assay as described previously (Scott et al., 2006, J Biol Chem. 281, 34942-34954). HEK-293T cells co-transfected with either RXFP1 or RXFP2, or 7BP cells, and a pCRE β-galactosidase reporter plasmid were plated in 96-well plates. After 24 hours, the co-transfected cells were incubated with increasing concentrations of peptides in parallel to 10 nM of H2 relaxin or INSL3 for RXFP1- or RXFP2-transfected cells respectively. The amount of cAMP-driven β-galactosidase expression in each well was assessed with a colorimetric assay measuring absorbance at 570 nm on a microplate spectrophotometer. Ligand-induced cAMP stimulation was expressed as a percentage of maximal response of H2 relaxin or INSL3 for RXFP1 and RXFP2 cells respectively. Each data point was measured in triplicate and each experiment conducted independently at least three separate times. Statistical differences in pEC50 values were analyzed using one-way ANOVA coupled to Newman Keul's multiple comparison test for multiple group comparisons in GraphPad Prism 6.
(In general: Reporter assays use an easily measured gene product as a stand-in for the process of interest.)

Data set [2] concerns MMP-2. Briefly: MMP-2 expression by gelatin zymography in human cardiac fibroblasts. Format: cell-based. The following applies: gelatin zymography and densitometry.
The subject of data set [3] is rat model of myocardial infarction. As to the kind of experiment: Rat model of myocardial infarction-induced heart failure. It counts as in vivo. The following applies: vs vehicle. The method, then: Adult male Sprague-Dawley rats weighing 250-320 g were obtained from Animal Resources Centre, Perth, Wash., Australia. The rats were group housed in a constant temperature of 22±1° C. and a relative humidity of 50-60% under a controlled light-dark cycle of 12 hours. Rats were given access to standard laboratory rat chow and drinking water ad libitum.
Heart failure was induced as previously described (Ruchaya et al., 2014, Exp Physiol 99, 111-122). Breifly, to induce heart failure, rats were anaesthetised with an intramuscular injection of ketamine (60 mg/kg) and medetomide hydrochloride ([…]). A left sided thoracotomy through an opening between the fourth and fifth rib was performed, the heart was exteriorised and the left anterior descending coronary artery was ligated. Anaesthesia was reversed with antipamezole hydrocholide (1 mg/kg). Penicillin (1000 U) and buprenorphine (0.05 mg/kg) was administered to aid post-operative recovery. Animals were left to recover from the surgery under a heating source. Rats were individually housed after the surgery.
Eight weeks after myocardial infarction surgery, rats were randomly assigned to 3 groups (vehicle, H2 and B7-33), re-anaesthetised (2-3% isoflurane) and an osmotic mini-pump (model 2ML4, Alzet, Cupertino, Calif.) implanted intraperitoneally. Vehicle (saline), native H2 relaxin (0.5 mg/kg/day) or B7-33 C11.23S (0.5 mg/kg/day) was continuously administered for 28 days. At the conclusion of treatment, rats were anaesthetized (sodium pentobarbitone, 60 mg/kg i.p.) and the left ventricular end-diastolic pressure determined prior to decapitation and removal of the heart for histological analysis.

Data set [4] relates to RM1 mouse prostate tumour cells. Briefly: Prostate tumour growth after injection of RM1 cells into prostates of C57BL/6 mice. Format: in vivo. The following applies: day 10 after RM1 cells, s.c. mini-pump from day 2, H2 relaxin 0.15, B7-33 C11.23S 0.075 mg/kg/day, vs untreated. The source says: Seven to eight-week old male 129SV mice (which are sensitive to tissue injury and fibrosis) and age-matched female Balb/c mice (which are sensitive to changes in airway hyperresponsiveness) were used for the induction of isoproterenol-induced cardiomyopathy and ovalbumin-induced chronic allergic airways disease, respectively. 16 five week-old male C57BL/6 mice were used in the induction of prostate cancer growth. All animals were obtained from Monash Animal Services (Monash University, Clayton, Victoria, Australia) and housed under standard conditions (maintained on an 12 h light-12 h dark lighting cycle with free access to food and water) in the Department of Pharmacology Animal Room at Monash University.
H2 relaxin can induce prostate and other tumour growth. To measure the effect of B7-33 C11.23S on tumour growth, 16 five week-old male C57BL/6 mice (obtained from Monash Animal Services) were injected with 5000 RM1 (mouse prostate tumor) cells into their prostates to induce tumor growth. One sub-group of mice n=5) was left untreated until day 10 post-RM1 cell administration. […]

T1 sequence (Q8WXD0 whole entry): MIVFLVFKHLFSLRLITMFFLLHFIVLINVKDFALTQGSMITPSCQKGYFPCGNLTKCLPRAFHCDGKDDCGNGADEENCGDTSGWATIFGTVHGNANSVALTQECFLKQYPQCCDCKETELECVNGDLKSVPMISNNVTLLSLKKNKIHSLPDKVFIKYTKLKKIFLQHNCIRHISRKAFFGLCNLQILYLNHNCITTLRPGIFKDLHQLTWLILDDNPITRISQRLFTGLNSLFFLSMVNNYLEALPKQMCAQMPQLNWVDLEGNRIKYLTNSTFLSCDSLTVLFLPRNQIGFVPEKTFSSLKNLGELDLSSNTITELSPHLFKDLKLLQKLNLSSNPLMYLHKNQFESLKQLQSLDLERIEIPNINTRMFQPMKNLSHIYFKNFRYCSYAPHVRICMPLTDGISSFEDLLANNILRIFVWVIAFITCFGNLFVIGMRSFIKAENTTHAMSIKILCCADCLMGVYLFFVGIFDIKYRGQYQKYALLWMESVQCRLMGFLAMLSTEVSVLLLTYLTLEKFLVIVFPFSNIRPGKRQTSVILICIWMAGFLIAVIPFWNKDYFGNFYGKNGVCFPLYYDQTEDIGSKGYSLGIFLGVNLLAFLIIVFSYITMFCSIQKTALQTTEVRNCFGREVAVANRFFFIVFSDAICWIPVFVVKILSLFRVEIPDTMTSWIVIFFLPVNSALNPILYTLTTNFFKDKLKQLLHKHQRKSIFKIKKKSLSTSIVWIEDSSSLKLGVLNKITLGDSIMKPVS

Consider `CC[C@H](C)[C@H](NC(=O)[C@H](C)NC(=O)[C@@H](NC(=O)[C@H](CCC(N)=O)NC(=O)[C@H](C)NC(=O)[C@H](CCCNC(=N)N)NC(=O)[C@@H](NC(=O)[C@H](CC(C)C)NC(=O)[C@H](CCC(=O)O)NC(=O)[C@H](CCCNC(=N)N)NC(=O)CNC(=O)[C@H](CO)NC(=O)[C@H](CC(C)C)NC(=O)[C@H](CCCCN)NC(=O)[C@@H](NC(=O)[C@@H](N)C(C)C)[C@@H](C)CC)C(C)C)[C@@H](C)CC)C(=O)N[C@@H](CO)C(=O)NCC(=O)N[C@@H](CCSC)C(=O)N[C@@H](CO)C(=O)N[C@H](C(=O)N[C@@H](Cc1c[nH]c2ccccc12)C(=O)N[C@@H](CO)C(=O)N[C@@H](CCCCN)C(=O)N[C@@H](CCCNC(=N)N)C(=O)N[C@@H](CO)C(=O)N[C@@H](CC(C)C)C(N)=O)[C@@H](C)O` [B7-33 C11.23S] (H-VIKLSGRELVRAQIAISGMSTWSKRSL-NH2), for which, in data set [1], the “Selectivity of cAMP stimulation, RXFP1 over RXFP2” value was “selective at RXFP1 over RXFP2”. Moreover, the “Induction of MMP-2 expression” value in data set [2] was “levels similar to those induced by the native H2 relaxin”. Further, in data set [3] (0.5 mg/kg/day i.p. mini-pump for 28 days from 8 weeks after MI), the “Percentage of collagen in the interstitial area of the left ventricle” value was “significant reduction”. In data set [3] (12 weeks after myocardial infarction), the “Left ventricular end-diastolic pressure (LVEDP)” value is given as “reduced”. The Prostate tumour size result in data set [4] is “did not result in changes in tumour size relative to untreated”.
